# Results: ChEMBL document CHEMBL1811856 (J Med Chem, 2011)
# Experiments:
# Sus scrofa = species on record: Sus scrofa; test: Selectivity ratio Ki for dopamine D2 like receptor in porcine striatal membranes to Ki for dopamine D1 like receptor in porcine striatal membranes; assay type: cell membranes
# [1] = Displacement of [3H]SCH-23390 from dopamine D1 like receptor in porcine striatal membranes after 30 mins by scintillation counting; assay type: cell membranes, Sus scrofa, Striatum, Membrane
# [2] = Displacement of [3H]spiperone from dopamine D2 like receptor in porcine striatal membranes after 30 mins by scintillation counting; assay type: cell membranes, Sus scrofa, Striatum, Membrane
SMILES,Ratio Ki (Sus scrofa),Ki [1] [µM],Ki [2] [µM]
C[C@@H]1Cc2cc(O)c(O)cc2[C@H]2c3ccccc3CN[C@@H]21,< 0.74,> 10,7.38
C[C@H]1Cc2cc(O)c(O)cc2[C@H]2c3ccccc3CN[C@@H]21 (racemic),1.3,6.54,8.67
Oc1cc2c(cc1O)[C@H]1c3ccccc3CN[C@@H]1CC2 (racemic) [DIHYDREXIDINE],–,–,0.24
C[C@@H]1C[C@H]2NCc3ccccc3[C@@H]2c2cc(O)c(O)cc21 (racemic),20,0.27,5.53
C[C@H]1C[C@H]2NCc3ccccc3[C@@H]2c2cc(O)c(O)cc21 (racemic),3.9,0.92,3.63
